In ChEMBL document CHEMBL1127517 (J Med Chem, 1994):
pKi: −log10 of the molar value.

How the values were obtained:
[1] = molecular target: T1, Sodium-dependent dopamine transporter (Rattus norvegicus, UniProt P23977); assay: Inhibitory constant towards reuptake of [125I]-12 from dopamine transporter in rat striatal membranes; assay type: cell membranes, Membrane
[2] = molecular target: T1, Sodium-dependent dopamine transporter; assay: Inhibitory constant towards reuptake of [125I]-13 from dopamine transporter in rat striatal membranes; assay type: cell membranes, Membrane

T1 sequence (P23977 whole entry): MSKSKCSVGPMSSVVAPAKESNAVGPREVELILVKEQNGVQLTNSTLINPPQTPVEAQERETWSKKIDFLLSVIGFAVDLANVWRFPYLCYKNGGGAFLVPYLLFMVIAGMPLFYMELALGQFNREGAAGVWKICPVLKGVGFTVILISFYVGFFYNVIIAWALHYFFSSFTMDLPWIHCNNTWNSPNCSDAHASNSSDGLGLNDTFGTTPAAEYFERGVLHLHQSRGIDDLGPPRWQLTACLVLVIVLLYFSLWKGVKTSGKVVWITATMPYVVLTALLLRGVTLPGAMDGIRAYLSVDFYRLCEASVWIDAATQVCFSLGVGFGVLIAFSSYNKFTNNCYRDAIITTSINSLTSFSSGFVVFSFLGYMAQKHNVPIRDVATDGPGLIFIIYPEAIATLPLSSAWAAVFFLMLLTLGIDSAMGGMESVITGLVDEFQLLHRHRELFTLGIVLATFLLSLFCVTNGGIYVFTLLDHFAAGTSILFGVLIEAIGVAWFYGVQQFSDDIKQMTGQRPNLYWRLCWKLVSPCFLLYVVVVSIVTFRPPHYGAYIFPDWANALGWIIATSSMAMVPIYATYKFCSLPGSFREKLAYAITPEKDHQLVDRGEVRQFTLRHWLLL

Work on `OC1(c2ccc(Cl)cc2)c2ccccc2C2=NCCN21` (configuration not stated) [MAZINDOL] yielded a pKi [1] of 7.49 and a pKi [2] of 7.38.
